Here are results for 23 compounds from ChEMBL document CHEMBL1144379, “The development of monocyclic pyrazolone based cytokine synthesis inhibitors” (Bioorg Med Chem Lett, 2005).

The structures appear in SMILES notation. Converted amounts (≈) assume the structure as drawn.

The subject of data set [1] is THP-1. Description: Inhibitory activity against lipopolysaccharide stimulated TNF-alpha production in THP-1 cells (human monocytic cells). It is filed as functional, cell-based.
A short description of data set [2]: Inhibition of Mitogen-activated protein kinase p38 alpha.
A short description of data set [3]: Aqueous solubility […]. The settings on record: aqueous medium. It counts as physicochemical, Rattus norvegicus.
Data set [4] in a line: Metabolism measured as percent loss at 4 hours in rat hepatocytes. It counts as ADME, cell-based, Hepatocyte. The settings on record: read-out: Metabolism.
Data set [5] in a line: Bioavailability in rat. It counts as ADME, organism-based. The settings on record: in vivo.
A short description of data set [6]: Half life in rats. It counts as ADME. Particulars: rat, in vivo.

`C[C@H](Nc1nccc(-c2c(-c3ccc(F)cc3)c(=O)n(C3CCNCC3)n2C)n1)C(C)(C)O`: half-maximal inhibition in data set [1] (IC50) was put at 1080 nM. As to `CCOCn1nc(-c2ccncc2)c(-c2ccc(F)cc2)n1`, the results for the IC50 in data set [2] and in data set [1] were 2430 nM and 1070 nM, respectively.

`COCCn1c(-c2ccnc(N[C@@H](C)c3ccccc3)n2)c(-c2ccc(F)cc2)c(=O)n1C` returned a solubility in data set [3] of 429 µg/mL (≈ 959 µM). Moreover, in data set [4], the metabolised at 4 h is 30%. This compound also showed an IC50 in data set [1] of 309 nM. For `C[C@H](Nc1nccc(-c2c(-c3ccc(F)cc3)c(=O)n(C)n2C)n1)c1ccccc1`, the solubility in data set [3] worked out at 123 µg/mL (≈ 305 µM). Moreover, the metabolised at 4 h in data set [4] is 44%. This compound gave a bioavailability in data set [5] of 32%. In data set [6], this compound had a half-life of 1.1 h. Moreover, 13 nM corresponded to half-maximal inhibition in data set [1] (IC50). In the case of `C[C@H](Nc1nccc(-c2c(-c3ccc(F)cc3)c(=O)n(C3CCN(C)CC3)n2C)n1)c1ccccc1`, the IC50 in data set [1] amounted to 15 nM.

`COC[C@H](C)Nc1nccc(-c2c(-c3ccc(F)cc3)c(=O)n(C3CCNCC3)n2C)n1` yielded a half-inhibitory concentration (IC50) in data set [1] of 261 nM. Still for that read-out and setting: to `CC[C@H](C)Nc1nccc(-c2c(-c3ccc(F)cc3)c(=O)n(C)n2C)n1` belongs 41 nM.

`CC(=O)N1CCC(n2c(=O)c(-c3ccc(F)cc3)c(-c3ccnc(N[C@@H](C)c4ccccc4)n3)n2C)CC1` returned an IC50 in data set [1] of 14 nM. The same measure, in the same setting: the result for `COCCn1c(-c2ccnc(Oc3ccccc3)n2)c(-c2ccc(F)cc2)c(=O)n1C` reads 1430 nM; that for `C[C@H](Nc1nccc(-c2c(-c3ccc(F)cc3)c(=O)n(C)n2C2CCNCC2)n1)c1ccccc1`, 155 nM; that for `C[C@H](Nc1nccc(-c2c(-c3ccc(F)cc3)c(=O)n(C)n2C)n1)c1cccnc1`, 647 nM. In data set [1], `O=c1c(-c2ccc(F)cc2)c(-c2ccncc2)[nH]n1-c1ccc(Cl)cc1` returned an IC50 of 4220 nM. For the compound `Cn1c(-c2ccnc(Oc3ccccc3)n2)c(-c2ccc(F)cc2)c(=O)n1C`, the half-inhibitory concentration (IC50) in data set [1] was determined as 288 nM.

Consider `COCCn1c(-c2ccnc(N[C@H](C)COC)n2)c(-c2ccc(F)cc2)c(=O)n1C`, for which the IC50 in data set [1] worked out at 924 nM. Turning to `C[C@H](Nc1nccc(-c2c(-c3ccc(F)cc3)c(=O)n(C)n2C)n1)c1ccncc1`, in data set [1], the IC50 was greater than 5000 nM. For `C[C@H](Nc1nccc(-c2c(-c3ccc(F)cc3)c(=O)n(C)n2C)n1)C(C)(C)O`, in data set [1], the IC50 amounted to 3970 nM.

Compound `Cn1c(-c2ccnc(Oc3ccccc3)n2)c(-c2ccc(F)cc2)c(=O)n1C1CCNCC1` yielded a half-maximal inhibitory concentration (IC50) in data set [1] of 1810 nM. As for `COC[C@H](C)Nc1nccc(-c2c(-c3ccc(F)cc3)c(=O)n(C)n2C)n1`, half-maximal inhibition in data set [1] (IC50) was put at 1430 nM. For `Cn1c(=O)c(-c2ccc(F)cc2)c(-c2ccnc(Oc3ccccc3)n2)n1C1CCNCC1`, in data set [1], half-maximal inhibition (IC50) was put at 2650 nM. `C[C@H](Nc1nccc(-c2c(-c3ccc(F)cc3)c(=O)n(C3CCNCC3)n2C)n1)c1ccccc1.O=C(O)C(F)(F)F` gave a solubility in data set [3] of 650 µg/mL. Moreover, the metabolised at 4 h in data set [4] amounted to 32%. The bioavailability in data set [5] was 17%. In data set [6], this compound showed a half-life of 3.2 h. Moreover, inhibition in data set [1] was half-maximal at 32 nM (IC50). With `CCn1c(-c2ccnc(N[C@@H](C)c3ccccc3)n2)c(-c2ccc(F)cc2)c(=O)n1CC`, half-maximal inhibition in data set [1] (IC50) required 120 nM. Take `COC[C@@H](C)Nc1nccc(-c2c(-c3ccc(F)cc3)c(=O)n(C)n2C2CCNCC2)n1.O=C(O)C(F)(F)F`: in data set [3], the solubility is greater than 30000 µg/mL. For the same compound, in data set [4], the metabolised at 4 h turned out to be 0%. Moreover, the bioavailability in data set [5] was 15%. Further, the half-life in data set [6] is 2.2 h. It took 75 nM to reach half-maximal inhibition in data set [1] (IC50). For the compound `C[C@H](Nc1nccc(-c2c(-c3ccc(F)cc3)c(=O)n(C)n2C)n1)c1ccccn1`, in data set [1], the IC50 came to 1430 nM.
